Source: patent US20020147155A1, “Prevention and treatment of endometriosis with aryl hydrocarbon receptor binding ligands” (priority 2001, published 2002)

Columns and labels:
uterus = conditions: animal experiment; cited from earlier work
endometriotic tissue = experiment: Surgically induced endometriosis (autotransplanted endometrial fragments) in cynomolgus monkeys, laparoscopy; format: in vivo, Macaca fascicularis; conditions: for Endometriotic lesion diameter: control 11.4±1.6
Source text: Numerous animal models of endometriosis have been developed involving rabbits (Rock, J A et al., Intraocular endometrium in the rabbit as a model for endometriosis, Fertil. Steril. 59:232-35 [1993]), rodents (Sakura, Y et al., Histological studies on the therapeutic effect of sustained-release microspheres of a potent LHRH agonist (leuprorelin acetate) in an experimental endometriosis model in rats, Endocrinol. Jpn. 37:719-729 [1990]; Rajkumar, K et al., The rat as an animal model for endometriosis to examine recurrence of ectopic endometrial tissue after regression, Fertil. Steril. 53:921-25 [1990]; Sudo, K et al., Effects of TAP-144-SR, a sustained-release formulation of a potent GnRH agonist, on experimental endometriosis in the rat, Endocrinol. Jpn. […] Gynecol. […] Steril. […] An. Sci. 33 :P15 [1994]; Cummings, A M and Metcalf, J L, Induction of endometriosis in mice: a new model sensitive to estrogen, Reprod. Toxicol. 9:233-38 [1995]; Cummings, A M et al., Promotion of endometriosis by 2,3,7,8-tetrachlorodibenzo-p-dioxin in rats and mice: time-dose dependence and species comparison, Toxicol. Appl. Pharmacol. 138:131-39 [1996]; Foster, W G et al., Morphologic characteristics of endometriosis in the mouse model: application to toxicology, Can. J. Physiol. Pharmacol. 75:1188-96 [1997]; Aoki, D et al., Successful heterotransplantation of human endometrium in SCID mice, Obstet. Gynecol. 83:220-28 [1994]; Bruner, K L et al., Suppression of matrix metalloproteinases inhibits establishment of ectopic lesions by human endometrium in nude mice, J. Clin. Invest. 99:2851-57 [1997]), and non-human primates (Schenken, R S et al., Etiology of infertility in monkeys with endometriosis: luteinized unruptured follicles, luteal phase defects, pelvic adhesions, and spontaneous abortions, Fertil. Steril. 41:122-30 [1984]; Rier, S E et al., Endometriosis in rhesus monkeys (Macaca mulatta) following chronic exposure to tetrachlorodibenzo-p-dioxin, Fund. Appl. Toxicol. 21:433-41 [1993]; D'Hooghe, T D et al., Development of a model of retrograde menstruation in baboons (Papio anubis), Fertil. Steril. 62:635-38 [1994]). […] Therefore, a non-human primate model was selected, because monkeys and baboons spontaneously develop endometriosis, the pathophysiology of the disease resembles humans and abundant tissue can be obtained for study purposes. In particular, nulliparous female cynomolgus monkeys (Macaca fascicularis) were the animals chosen.
The effects of subchronic exposure to an AhR binding ligand was examined in a non-human primate model. Endometrial fragments were surgically autotransplanted to the pelvic cavity of nulliparous cynomolgus monkeys (Macaca fascicularis, n=23). Briefly, each monkey's own endometrial tissue was obtained during a laparotomy in which the body of the uterus was opened in the anterior midline. A strip of endometrium was removed by careful dissection and divided into a number of equal pieces, one of which was used for histopathology to confirm the presence of both endometrial epithelium and stroma. […]
The monkeys were divided into 4 treatment groups and dosed five days a week with gelatin capsules containing 0, 1, 5 or 25 ng/kg body mass of AhR binding ligand 2,3,7,8-tetrachlorodibenzo-p-dioxin (TCDD), mixed with glucose. Endometriotic implant survival and diameter were monitored by laparoscopy at intervals of one, three, six and 12 months.

endometriosis = conditions: rodents and monkeys; cited from earlier work
estrogen metabolites = conditions: oral administration, women; cited from earlier work
[1] = molecular target: T1, aryl hydrocarbon receptor (Homo sapiens, UniProt P35869); conditions: in culture; cited from earlier work
T1 sequence (P35869 11-848): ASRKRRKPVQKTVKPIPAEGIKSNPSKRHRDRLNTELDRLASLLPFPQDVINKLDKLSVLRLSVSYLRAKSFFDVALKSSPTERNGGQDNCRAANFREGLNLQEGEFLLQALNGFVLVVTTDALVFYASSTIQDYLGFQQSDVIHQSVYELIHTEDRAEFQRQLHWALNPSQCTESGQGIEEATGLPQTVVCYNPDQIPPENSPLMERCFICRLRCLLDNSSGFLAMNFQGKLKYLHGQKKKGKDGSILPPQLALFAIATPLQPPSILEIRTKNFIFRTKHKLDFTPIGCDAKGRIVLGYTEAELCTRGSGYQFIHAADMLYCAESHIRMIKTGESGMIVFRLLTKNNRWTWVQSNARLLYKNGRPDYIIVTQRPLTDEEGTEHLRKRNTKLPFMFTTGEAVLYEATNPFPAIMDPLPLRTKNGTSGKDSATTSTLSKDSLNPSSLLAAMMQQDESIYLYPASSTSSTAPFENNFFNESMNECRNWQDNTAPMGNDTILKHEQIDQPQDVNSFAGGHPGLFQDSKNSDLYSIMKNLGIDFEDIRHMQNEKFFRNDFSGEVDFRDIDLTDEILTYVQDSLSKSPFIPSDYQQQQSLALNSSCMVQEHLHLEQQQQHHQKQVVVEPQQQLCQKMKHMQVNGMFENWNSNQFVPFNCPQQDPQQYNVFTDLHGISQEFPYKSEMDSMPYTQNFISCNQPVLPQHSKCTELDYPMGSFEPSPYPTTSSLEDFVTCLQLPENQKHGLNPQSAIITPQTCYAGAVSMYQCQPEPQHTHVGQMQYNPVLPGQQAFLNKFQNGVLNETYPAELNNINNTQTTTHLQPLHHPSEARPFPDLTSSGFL

In the case of `Fc1ccc2[nH]cc(Cc3c[nH]c4ccccc34)c2c1` [5-fluoro-diindolylmethane], the “Uterine wet weight as a percentage of body weight” value (uterus) is given as “increase”.
With `Clc1cc2c(cc1Cl)Oc1cc(Cl)c(Cl)cc1O2` [TCDD, 2,3,7,8-tetrachlorodibenzo-p-dioxin] the Endometriotic lesion diameter (endometriotic tissue; 0.71 ng/kg/day TCDD, oral gelatin capsules) was 4.2±0.9 mm, the “Endometriotic lesion survival rate” value (endometriotic tissue; 0.71 ng/kg/day TCDD, oral, control 16%) was 20% and the “Endometriotic lesion survival rate” value (endometriotic tissue; 3.57 ng/kg/day TCDD for one year, oral, control 16.0%) was 26.7%. For the same compound, the Endometriotic lesion diameter (endometriotic tissue; 17.86 ng/kg/day TCDD for one year, oral) was 14.5±0.2 mm, the “Endometriotic lesion survival rate” value (endometriotic tissue; 17.86 ng/kg/day TCDD for one year, oral, control 16.0%) was 33.3% and the Effect on endometriosis (endometriosis) was “promoted endometriosis”.
In the case of `OCc1c[nH]c2ccccc12` [indole-3-carbinol], the “Levels of estrogen metabolites” value (estrogen metabolites) is given as “reduce levels of estrogen metabolites”.
In the case of `NCCc1c[nH]c2ccccc12` [tryptamine], the “Binding to and activation of aryl hydrocarbon receptor” value [1] is listed as “bind to and activate”.
In the case of `N[C@@H](Cc1c[nH]c2ccccc12)C(=O)O` [tryptophan], the “Binding to and activation of aryl hydrocarbon receptor” value [1] is listed as “bind to and activate”.
